Some test systems named below: SF-295 CNS; MDA-MB-231 breast; MDA-MB-435; COLO 205 colon; IGROV1 ovarian; NCI-H522 lung; TK-10 renal; HCC-2998 colon; SK-OV-3 ovarian; U251 CNS.
Test in all cases: growth of human tumour cells (NCI), 48 h

Where “and” joins values, the source holds several entries; their conditions need not be identical. Equal values may be shown once.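 The compound was tested at five concentrations on cells cultured in 96-well plates, with a 48-hour exposure period. GI50: concentration for 50% inhibition of growth. TGI denotes the concentration required for complete inhibition of growth.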 Where only a bound is given, the exact number is not on record here.

For the compound `N#Cc1ccc(/C=C/C(=O)c2ccccc2)cc1`, the GI50 with SF-295 CNS is 16.4 µM and 11.8 µM; in the assay on MDA-MB-231 breast, 15 µM and 15.1 µM; in the assay with MDA-MB-435, 6.28 µM and 8.07 µM; with COLO 205 colon it was 6.34 µM and 14.3 µM; in the assay with IGROV1 ovarian, 4.18 µM and 2.27 µM; in the assay on NCI-H522 lung, 10.4 µM and 14.7 µM. In addition, the GI50 with TK-10 renal is 14.2 µM and 12.1 µM; in the assay with HCC-2998 colon, 5.82 µM and 5.13 µM; with SK-OV-3 ovarian, 17.3 µM and 20.2 µM; in the assay on U251 CNS, 2.95 µM and 3.76 µM. The TGI in the assay with SF-295 CNS was 32.1 µM and 25.4 µM; with MDA-MB-231 breast, 29.3 µM and 30.1 µM; in the assay with MDA-MB-435, 18 µM and 21.8 µM; in the assay with COLO 205 colon, 16.3 µM and 27.9 µM; with IGROV1 ovarian, 14.6 µM and 5.58 µM; in the assay on NCI-H522 lung it was 22.4 µM and 31.5 µM. The TGI in the assay on TK-10 renal is 28.2 µM and 26 µM; in the assay with HCC-2998 colon, 10.7 µM and 10.3 µM; in the assay with SK-OV-3 ovarian, 33.2 µM and 44.9 µM; with U251 CNS, 9.52 µM and 11.8 µM.

As to `COC(=O)c1ccc2c(C(=Nc3ccc(N(C)C(=O)CN4CCN(C)CC4)cc3)c3ccccc3)c(O)[nH]c2c1`, the GI50 in the assay on SF-295 CNS is 4.46 µM and 10.8 µM; in the assay on MDA-MB-231 breast it was 1.91 µM and 2.5 µM; with MDA-MB-435, 1.63 µM and 1.6 µM; in the assay with COLO 205 colon, 4.32 µM and 4.41 µM; in the assay on IGROV1 ovarian, 0.839 µM and 0.967 µM; in the assay with NCI-H522 lung, 1.5 µM and 1.75 µM. Also, the GI50 with TK-10 renal is 4.63 µM and 19.2 µM; with HCC-2998 colon, 11.2 µM and 7.26 µM; in the assay with SK-OV-3 ovarian, 12.3 µM and > 57.6 µM; with U251 CNS, 1.44 µM and 1.77 µM. Moreover, the TGI with SF-295 CNS is 13.1 µM and > 56.9 µM; with MDA-MB-231 breast, 4.11 µM and 6.96 µM; with MDA-MB-435, 3.09 µM and 3.05 µM; in the assay on COLO 205 colon, 46.4 µM; in the assay on IGROV1 ovarian, 22.5 µM and > 100 µM; in the assay on NCI-H522 lung, 3.67 µM and 5.77 µM. Moreover, the TGI was 23.5 µM and > 100 µM in the assay with TK-10 renal; 30.7 µM and 73.8 µM in the assay on HCC-2998 colon; 44.1 µM and > 100 µM in the assay on SK-OV-3 ovarian.

Take `CC(C)COC(c1ccc2c(c1)OCO2)C(C)Br` (stereo not drawn): the TGI in the assay with SF-295 CNS was 53.6 µM; in the assay with MDA-MB-231 breast, > 100 µM; in the assay on MDA-MB-435 it was 51.7 µM; in the assay on COLO 205 colon, 49.7 µM; with IGROV1 ovarian it was > 100 µM; in the assay with NCI-H522 lung, 37.8 µM. Moreover, the TGI in the assay with TK-10 renal is > 100 µM; in the assay on HCC-2998 colon it was 38.6 µM; in the assay with SK-OV-3 ovarian it was 80 µM; in the assay on U251 CNS, 93.8 µM.

For `COC(=O)C1(C)CCCC2(C)c3cc(OC)ccc3C(=O)C(Br)C12` (stereo not drawn), the TGI is > 10 µM with SF-295 CNS; > 10 µM in the assay with MDA-MB-231 breast; > 10 µM in the assay with MDA-MB-435; 7.29 µM with COLO 205 colon; > 10 µM with IGROV1 ovarian; 5.25 µM in the assay on NCI-H522 lung. The TGI in the assay on TK-10 renal, in the assay with HCC-2998 colon, in the assay on SK-OV-3 ovarian and with U251 CNS was > 10 µM in each case.

`CC/C(=N/N=C(N)N)c1ccc(NC(=O)Nc2ccc(/C(CC)=N/N=C(N)N)cc2)cc1`: the GI50 is 3.99 µM in the assay on SF-295 CNS; 6.88 µM in the assay with MDA-MB-231 breast; 3.72 µM in the assay on MDA-MB-435; 3.25 µM in the assay on COLO 205 colon; 3.15 µM with IGROV1 ovarian; 1.74 µM in the assay on NCI-H522 lung. Besides, the GI50 in the assay with TK-10 renal is 2.31 µM; in the assay on HCC-2998 colon, 7.56 µM; in the assay with SK-OV-3 ovarian it was 16.5 µM; in the assay with U251 CNS it was 2.64 µM. Moreover, the TGI is 19 µM in the assay on SF-295 CNS; 28.1 µM in the assay on MDA-MB-231 breast; 16.2 µM in the assay on MDA-MB-435; 21.2 µM with COLO 205 colon; 14.8 µM in the assay with IGROV1 ovarian; 7.03 µM in the assay on NCI-H522 lung. Besides, the TGI in the assay on TK-10 renal stood at 9.96 µM; in the assay on HCC-2998 colon, 36.3 µM; in the assay on SK-OV-3 ovarian it was 64.5 µM; in the assay on U251 CNS, 12.2 µM.

In the case of `Fc1ccc(-c2c(-c3ccncc3)[nH]c3nccnc23)cc1`, the GI50 with SF-295 CNS was > 15.1 µM; with MDA-MB-231 breast, > 14.4 µM; in the assay on MDA-MB-435 it was 11.6 µM; in the assay with COLO 205 colon, 5.86 µM; in the assay on IGROV1 ovarian, 16.2 µM; with NCI-H522 lung, > 11.1 µM. In addition, the GI50 in the assay on TK-10 renal is 5.94 µM; in the assay with HCC-2998 colon it was 12 µM; in the assay with SK-OV-3 ovarian, 8.25 µM; in the assay with U251 CNS, 12.5 µM. The TGI in the assay with SF-295 CNS is > 25 µM; in the assay with MDA-MB-231 breast, > 25 µM; in the assay on MDA-MB-435, > 25 µM; in the assay with COLO 205 colon, > 25 µM; in the assay with IGROV1 ovarian it was > 25 µM; in the assay on NCI-H522 lung it was > 21.6 µM. Moreover, the TGI in the assay with TK-10 renal was > 21.6 µM; in the assay on HCC-2998 colon, > 25 µM; with SK-OV-3 ovarian, > 25 µM; with U251 CNS it was > 25 µM.

Take `Oc1cccc(-c2nc(-c3ccccc3)[nH]c2-c2ccncc2)c1`: the GI50 with SF-295 CNS was 14.7 µM; in the assay on MDA-MB-231 breast, 9.59 µM; in the assay on MDA-MB-435, 4.31 µM; in the assay with COLO 205 colon it was 4.88 µM; in the assay with IGROV1 ovarian, 10.4 µM; with NCI-H522 lung, 11.8 µM. The GI50 with TK-10 renal was 16.5 µM; in the assay with HCC-2998 colon it was 11.7 µM; in the assay with SK-OV-3 ovarian, 9.29 µM; in the assay on U251 CNS, 17.1 µM. In addition, the TGI with SF-295 CNS is > 25 µM; with MDA-MB-231 breast, > 25 µM; with MDA-MB-435, > 25 µM; with COLO 205 colon, 12.2 µM; in the assay with IGROV1 ovarian it was > 25 µM; in the assay with NCI-H522 lung, > 25 µM. Besides, the TGI with TK-10 renal, in the assay with HCC-2998 colon, with SK-OV-3 ovarian and with U251 CNS was > 25 µM throughout.

Regarding `Cc1cc2c(cc1Cl)SC(C(=O)c1ccc(Cl)c(Cl)c1)NS2(=O)=O` (stereo not drawn), the GI50 is 34.9 µM in the assay with SF-295 CNS; 36.7 µM with MDA-MB-231 breast; 26.7 µM in the assay on MDA-MB-435; 21 µM in the assay on COLO 205 colon; 40.9 µM in the assay with IGROV1 ovarian; 28.9 µM in the assay on NCI-H522 lung. Besides, the GI50 was 84.7 µM with TK-10 renal, 19.8 µM with HCC-2998 colon, 33.7 µM with SK-OV-3 ovarian and 34.4 µM in the assay on U251 CNS. The TGI with SF-295 CNS is > 100 µM; in the assay with MDA-MB-231 breast, > 100 µM; in the assay with MDA-MB-435, 65.6 µM; with COLO 205 colon it was 44 µM; with IGROV1 ovarian it was > 100 µM; in the assay on NCI-H522 lung it was 74.4 µM. Also, the TGI in the assay on TK-10 renal is > 100 µM; in the assay with HCC-2998 colon, 35.1 µM; with SK-OV-3 ovarian it was 91.4 µM; with U251 CNS it was > 100 µM.

As for `CCN1C(=O)N(CC)C2C1NN=c1s/c(=C\c3ccc(OC)cc3)c(=O)n12` (stereo not drawn), the GI50 is 0.0684 µM with SF-295 CNS; 0.353 µM in the assay with MDA-MB-231 breast; 0.031 µM in the assay with MDA-MB-435; 0.192 µM in the assay with COLO 205 colon; 0.295 µM in the assay on IGROV1 ovarian; 0.105 µM with NCI-H522 lung. The GI50 in the assay on TK-10 renal is > 33.5 µM; with HCC-2998 colon it was 0.357 µM; in the assay on SK-OV-3 ovarian it was 0.267 µM; in the assay on U251 CNS, 0.244 µM. In addition, the TGI is > 45.9 µM in the assay with SF-295 CNS; > 39 µM with MDA-MB-231 breast; 0.105 µM in the assay with MDA-MB-435; 0.616 µM in the assay with COLO 205 colon; > 100 µM with IGROV1 ovarian; > 100 µM in the assay with TK-10 renal. In addition, the figures for the TGI in the assay on HCC-2998 colon, in the assay on SK-OV-3 ovarian and in the assay on U251 CNS were > 100 µM, 17.1 µM and > 100 µM, respectively.

On to `COc1cc2c(cc1O)C1CC(CC3CCCCN31)OC(=O)/C=C\c1ccc(O)c-2c1` (stereo not drawn), for which the TGI was 29.1 µM in the assay on SF-295 CNS; 64.8 µM in the assay on MDA-MB-231 breast; 50.8 µM in the assay on MDA-MB-435; 83.1 µM with COLO 205 colon; > 100 µM in the assay with IGROV1 ovarian; 65 µM in the assay on NCI-H522 lung. Moreover, the TGI is 95.8 µM in the assay with TK-10 renal, 36 µM with HCC-2998 colon, 96.7 µM in the assay on SK-OV-3 ovarian and > 100 µM in the assay with U251 CNS.

Regarding `CNCCN(C)Cc1cn[nH]c1-c1ccc(OC2CC(OCCC3CCOCC3)C2)cc1` (stereo not drawn), the GI50 in the assay with SF-295 CNS was 49.9 µM; in the assay with MDA-MB-231 breast it was 40.7 µM; in the assay with MDA-MB-435, > 100 µM; in the assay with COLO 205 colon, 21.2 µM; in the assay with IGROV1 ovarian it was 48.5 µM; in the assay with NCI-H522 lung, > 100 µM. Moreover, the GI50 was > 100 µM in the assay with TK-10 renal, > 100 µM with HCC-2998 colon, > 100 µM in the assay on SK-OV-3 ovarian and 55.2 µM with U251 CNS. In addition, the TGI with SF-295 CNS was > 100 µM; with MDA-MB-231 breast, > 100 µM; in the assay with MDA-MB-435 it was > 100 µM; in the assay on COLO 205 colon, 85.7 µM; in the assay on IGROV1 ovarian it was > 100 µM; in the assay with NCI-H522 lung, > 100 µM. Besides, the TGI in the assay with TK-10 renal, in the assay on HCC-2998 colon, in the assay with SK-OV-3 ovarian and in the assay with U251 CNS was > 100 µM in each case.

For the compound `CCOC(=O)c1cc(-c2ccccc2)[nH]c1N/N=C/c1c(Cl)cccc1Cl`, the GI50 is 0.339 µM with SF-295 CNS; 3.7 µM in the assay with MDA-MB-231 breast; 0.272 µM in the assay on MDA-MB-435; 2.71 µM with COLO 205 colon; 0.752 µM in the assay with IGROV1 ovarian; 0.701 µM with NCI-H522 lung. In addition, the GI50 in the assay on TK-10 renal was 13.2 µM; in the assay on HCC-2998 colon, 1.01 µM; with SK-OV-3 ovarian it was 2.4 µM; in the assay with U251 CNS, 1.25 µM. The TGI is 10.3 µM in the assay on SF-295 CNS; 25.4 µM in the assay on MDA-MB-231 breast; 2.83 µM in the assay with MDA-MB-435; 15.3 µM in the assay on COLO 205 colon; 29.3 µM in the assay with IGROV1 ovarian; > 26.2 µM in the assay on NCI-H522 lung. Further, the TGI with TK-10 renal is > 87.8 µM; with HCC-2998 colon it was 7.48 µM; in the assay on SK-OV-3 ovarian, > 100 µM; with U251 CNS, > 60.4 µM.

For the origin of these results see PubChem BioAssay (NCI).
